The values that follow come from ChEMBL document CHEMBL1139468, “Virtual screening of novel CB2 ligands using a comparative model of the human cannabinoid CB2 receptor” (J Med Chem, 2005).

Molecules are shown by their SMILES. pEC50: −log10 of the molar value. Active and inactive are the calls of the source. No cut-off for these calls is given here.

Assay [1] addresses Cannabinoid receptor 2 (Homo sapiens, UniProt P34972). Briefly: Agonist activity at human CB2 receptor transfected in CHO cells by [35]GTPgamma binding assay. Type of assay: cell-based.
Assay [2] deals with Cannabinoid receptor 1 (Rattus norvegicus) (UniProt P20272). Kind of assay: Activity at CB1 receptor in rat cerebellar membrane by [35]GTPgamma binding assay. Type of assay: functional, cell membranes. The note with it: Cerebellum.
Cannabinoid receptor 1 (Rattus norvegicus), sequence (P20272 whole entry): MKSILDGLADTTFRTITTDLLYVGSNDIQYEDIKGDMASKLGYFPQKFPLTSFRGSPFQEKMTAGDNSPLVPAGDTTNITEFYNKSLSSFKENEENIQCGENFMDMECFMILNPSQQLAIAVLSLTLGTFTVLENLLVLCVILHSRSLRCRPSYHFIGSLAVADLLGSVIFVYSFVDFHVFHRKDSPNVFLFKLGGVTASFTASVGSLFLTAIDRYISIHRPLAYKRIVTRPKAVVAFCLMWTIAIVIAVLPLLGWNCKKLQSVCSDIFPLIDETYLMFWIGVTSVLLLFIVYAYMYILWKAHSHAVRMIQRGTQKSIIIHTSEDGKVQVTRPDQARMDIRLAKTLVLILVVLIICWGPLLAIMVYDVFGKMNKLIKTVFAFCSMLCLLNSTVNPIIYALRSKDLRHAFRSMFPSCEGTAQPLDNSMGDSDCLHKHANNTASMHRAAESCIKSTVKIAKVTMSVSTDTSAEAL
Assay [3] addresses T1, Fatty-acid amide hydrolase 1 (Homo sapiens) (UniProt O00519).
T1 sequence (whole entry): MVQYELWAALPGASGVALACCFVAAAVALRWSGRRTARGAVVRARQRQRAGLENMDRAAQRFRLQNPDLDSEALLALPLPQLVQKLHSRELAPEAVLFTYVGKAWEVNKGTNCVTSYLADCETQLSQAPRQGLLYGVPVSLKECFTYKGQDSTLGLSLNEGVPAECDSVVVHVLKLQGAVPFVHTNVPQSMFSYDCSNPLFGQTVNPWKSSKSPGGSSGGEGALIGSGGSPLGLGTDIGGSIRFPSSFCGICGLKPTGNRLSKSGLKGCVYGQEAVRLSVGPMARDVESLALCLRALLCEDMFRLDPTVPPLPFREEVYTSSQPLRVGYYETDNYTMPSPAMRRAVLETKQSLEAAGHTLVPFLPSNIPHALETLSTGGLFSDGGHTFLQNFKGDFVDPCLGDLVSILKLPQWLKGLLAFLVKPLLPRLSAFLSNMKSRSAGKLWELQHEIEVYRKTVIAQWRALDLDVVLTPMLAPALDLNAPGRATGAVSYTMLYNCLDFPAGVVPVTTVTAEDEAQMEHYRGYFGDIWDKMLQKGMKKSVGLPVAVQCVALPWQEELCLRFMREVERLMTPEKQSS
Kind of assay: Inhibition of FAAH.

Assay [4] in a line: Inhibition of methionine gamma-lyase.

Cannabinoid receptor 2, sequence (P34972 whole entry): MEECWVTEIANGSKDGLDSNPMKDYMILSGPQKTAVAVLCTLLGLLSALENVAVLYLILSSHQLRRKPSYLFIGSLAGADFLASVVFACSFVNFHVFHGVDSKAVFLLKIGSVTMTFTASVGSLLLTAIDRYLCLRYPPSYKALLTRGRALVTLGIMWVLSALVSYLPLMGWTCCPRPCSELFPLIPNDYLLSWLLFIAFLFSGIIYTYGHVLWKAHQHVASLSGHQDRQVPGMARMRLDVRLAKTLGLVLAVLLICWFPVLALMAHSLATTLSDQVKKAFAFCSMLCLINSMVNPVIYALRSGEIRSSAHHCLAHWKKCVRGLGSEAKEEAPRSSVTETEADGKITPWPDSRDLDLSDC

In turn, `CCCCCCC(C)(C)c1cc(O)c2c(c1)OC(C)(C)[C@H]1CC=C(CO)C[C@H]21` registered an Emax in assay [1] of 103%.
As for `O=C(c1cccc(C(F)(F)F)c1)c1nccc2ccccc12`, the result in assay [2], in assay [3] and in assay [4] was inactive. This compound also gave a pEC50 in assay [1] of 5.30. Besides, the maximum response (Emax) in assay [1] was 53%.
